Measurements from ChEMBL document CHEMBL2385026, “Identification of C-2 hydroxyethyl imidazopyrrolopyridines as potent JAK1 inhibitors with favorable physicochemical properties and high selectivity over JAK2” (J Med Chem, 2013).
Values after ≈ are worked out from the molar mass of the structure shown.

Legend:
[1] = Apparent permeability across apical to basolateral side in dog MDCK cells; format: ADME, cell-based, Canis lupus familiaris
[2] = Plasma protein binding in dog; format: ADME, cell-free, Canis lupus familiaris; conditions: read-out: PPB (converted)
Cytochrome P450 1A2 = molecular target: T1, Cytochrome P450 1A2 (Homo sapiens, UniProt P05177); experiment: Reversible inhibition of CYP1A2 in human liver microsomes using phenacetin as substrate by LC/MS/MS analysis; format: ADME, Microsome
T1 sequence (P05177 whole entry): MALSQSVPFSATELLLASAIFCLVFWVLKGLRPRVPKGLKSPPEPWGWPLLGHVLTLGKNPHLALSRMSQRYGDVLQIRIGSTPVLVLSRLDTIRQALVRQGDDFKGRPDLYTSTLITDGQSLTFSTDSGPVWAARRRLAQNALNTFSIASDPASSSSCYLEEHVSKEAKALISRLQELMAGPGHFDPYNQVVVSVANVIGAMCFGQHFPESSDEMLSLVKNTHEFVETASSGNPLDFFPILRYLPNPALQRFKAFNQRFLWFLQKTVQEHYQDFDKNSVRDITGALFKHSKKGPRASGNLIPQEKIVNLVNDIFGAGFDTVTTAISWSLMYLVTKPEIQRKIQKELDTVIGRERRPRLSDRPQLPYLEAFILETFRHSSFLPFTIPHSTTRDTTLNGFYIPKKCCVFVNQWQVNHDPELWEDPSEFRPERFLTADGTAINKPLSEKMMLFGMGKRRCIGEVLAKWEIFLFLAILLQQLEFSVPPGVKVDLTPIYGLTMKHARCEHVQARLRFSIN

[3] = AUC in cynomolgus monkey at 2 mg/kg, po by LC/MS/MS analysis; format: ADME, organism-based, Macaca fascicularis; set-up: dose 2 mg/kg, route oral; conditions: plasma
[4] = Half life in Beagle dog at 0.4 mg/kg, iv by LC/MS/MS analysis; format: ADME, organism-based, Canis lupus familiaris; set-up: dose 0.4 mg/kg, route intravenous; conditions: in vivo
[5] = Plasma protein binding in cynomolgus monkey; format: ADME, cell-free, Macaca fascicularis; conditions: read-out: PPB (converted)
Cytochrome P450 3A4 [6] = molecular target: T2, Cytochrome P450 3A4 (Homo sapiens, UniProt P08684); experiment: Reversible inhibition of CYP3A4 in human liver microsomes using midazolam as substrate by LC/MS/MS analysis; format: ADME, Microsome
T2 sequence (P08684 whole entry): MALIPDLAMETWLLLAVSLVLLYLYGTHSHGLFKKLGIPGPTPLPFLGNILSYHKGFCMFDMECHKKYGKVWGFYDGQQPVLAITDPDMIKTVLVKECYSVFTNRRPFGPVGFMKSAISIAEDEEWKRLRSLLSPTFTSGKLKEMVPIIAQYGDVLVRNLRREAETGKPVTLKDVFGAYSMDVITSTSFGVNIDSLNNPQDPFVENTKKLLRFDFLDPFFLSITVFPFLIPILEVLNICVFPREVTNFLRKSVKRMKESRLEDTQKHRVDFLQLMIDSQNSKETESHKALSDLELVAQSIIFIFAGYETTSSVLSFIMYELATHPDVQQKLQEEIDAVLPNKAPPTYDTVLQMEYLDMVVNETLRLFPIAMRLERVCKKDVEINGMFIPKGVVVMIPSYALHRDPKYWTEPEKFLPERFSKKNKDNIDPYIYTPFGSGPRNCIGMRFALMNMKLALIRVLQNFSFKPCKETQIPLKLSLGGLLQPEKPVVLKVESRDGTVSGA

[7] = Half life in cynomolgus monkey at 0.4 mg/kg, iv by LC/MS/MS analysis; format: ADME, organism-based, Macaca fascicularis; set-up: dose 0.4 mg/kg, route intravenous; conditions: in vivo
[8] = Cmax in cynomolgus monkey at 2 mg/kg, po by LC/MS/MS analysis; format: ADME, organism-based, Macaca fascicularis; set-up: dose 2 mg/kg, route oral; conditions: in vivo
[9] = Metabolic stability in monkey hepatocytes assessed as hepatic clearance; format: ADME, cell-based, Macaca mulatta, Liver, Hepatocyte; conditions: rhesus monkey
[10] = Hepatic clearance in human hepatocytes after 1 to 4 hrs by LC/MS/MS analysis; format: ADME, cell-based, Liver, Hepatocyte
[11] = Clearance in cynomolgus monkey at 0.4 mg/kg, iv by LC/MS/MS analysis; format: ADME, organism-based, Macaca fascicularis; set-up: dose 0.4 mg/kg, route intravenous; conditions: in vivo
[12] = Clearance in Beagle dog at 0.4 mg/kg, iv by LC/MS/MS analysis; format: ADME, organism-based, Canis lupus familiaris; set-up: dose 0.4 mg/kg, route intravenous; conditions: in vivo
[13] = AUC in Sprague-Dawley rat at 2 mg/kg, po by LC/MS/MS analysis; format: ADME, organism-based; set-up: dose 2 mg/kg, route oral; conditions: plasma
Cytochrome P450 2C19 = Cytochrome P450 2C19 (Homo sapiens, UniProt P33261)
[14] = Half life in Sprague-Dawley rat at 0.4 mg/kg, iv by LC/MS/MS analysis; format: ADME, organism-based; set-up: dose 0.4 mg/kg, route intravenous; conditions: in vivo
[15] = Hepatic clearance in human liver microsomes by LC/MS/MS analysis; format: ADME, Microsome
[16] = Oral bioavailability in Sprague-Dawley rat at 2 mg/kg by LC/MS/MS analysis; format: ADME, organism-based; conditions: Sprague-Dawley, in vivo
[17] = Clearance in Sprague-Dawley rat at 0.4 mg/kg, iv by LC/MS/MS analysis; format: ADME, organism-based; set-up: dose 0.4 mg/kg, route intravenous; conditions: in vivo
[18] = Metabolic stability in rat hepatocytes assessed as hepatic clearance; format: ADME, cell-based, Liver, Hepatocyte
[19] = molecular target: Voltage-gated inwardly rectifying potassium channel KCNH2 (Homo sapiens, UniProt Q12809)
[20] = Plasma protein binding in rat; format: ADME, cell-free; conditions: read-out: PPB (converted)
[21] = molecular target: Tyrosine-protein kinase JAK3 (Homo sapiens, UniProt P52333)
Chain of Tyrosine-protein kinase JAK3 (P52333 whole entry): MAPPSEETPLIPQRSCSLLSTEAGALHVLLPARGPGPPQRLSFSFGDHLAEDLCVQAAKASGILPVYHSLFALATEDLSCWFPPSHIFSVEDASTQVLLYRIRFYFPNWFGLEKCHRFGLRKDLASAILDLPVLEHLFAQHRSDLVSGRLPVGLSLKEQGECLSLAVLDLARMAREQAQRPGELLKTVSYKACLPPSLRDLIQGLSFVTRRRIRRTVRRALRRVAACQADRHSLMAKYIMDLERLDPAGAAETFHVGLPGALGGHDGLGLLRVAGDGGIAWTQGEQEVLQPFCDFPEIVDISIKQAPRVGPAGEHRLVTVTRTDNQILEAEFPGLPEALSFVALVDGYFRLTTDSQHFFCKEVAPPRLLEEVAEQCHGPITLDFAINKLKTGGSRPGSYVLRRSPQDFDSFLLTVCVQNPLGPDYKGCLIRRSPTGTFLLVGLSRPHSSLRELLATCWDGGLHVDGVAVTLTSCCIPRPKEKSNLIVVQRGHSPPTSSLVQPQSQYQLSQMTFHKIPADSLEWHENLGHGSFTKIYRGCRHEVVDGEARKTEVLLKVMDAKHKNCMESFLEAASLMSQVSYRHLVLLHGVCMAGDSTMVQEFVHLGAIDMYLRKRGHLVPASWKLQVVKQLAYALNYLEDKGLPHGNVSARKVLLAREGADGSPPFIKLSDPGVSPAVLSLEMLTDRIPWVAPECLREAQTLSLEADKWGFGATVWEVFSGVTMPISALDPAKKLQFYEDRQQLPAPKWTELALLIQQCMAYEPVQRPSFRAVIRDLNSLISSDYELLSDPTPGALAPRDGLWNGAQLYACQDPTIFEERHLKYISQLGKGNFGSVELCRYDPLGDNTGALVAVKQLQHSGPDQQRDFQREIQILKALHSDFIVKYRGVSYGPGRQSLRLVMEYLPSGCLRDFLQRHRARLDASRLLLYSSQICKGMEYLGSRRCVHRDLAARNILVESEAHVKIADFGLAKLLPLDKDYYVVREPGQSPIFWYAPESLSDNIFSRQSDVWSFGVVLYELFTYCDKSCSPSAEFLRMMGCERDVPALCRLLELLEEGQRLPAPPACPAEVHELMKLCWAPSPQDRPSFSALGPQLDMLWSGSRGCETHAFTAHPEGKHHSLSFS

[22] = Oral bioavailability in Beagle dog at 2 mg/kg by LC/MS/MS analysis; format: ADME, organism-based, Canis lupus familiaris; conditions: Beagle, in vivo
[23] = AUC in Beagle dog at 2 mg/kg, po by LC/MS/MS analysis; format: ADME, organism-based, Canis lupus familiaris; set-up: dose 2 mg/kg, route oral; conditions: plasma
[24] = Thermodynamic solubility in aqueous buffer at pH 7.4; format: physicochemical; conditions: read-out: Therm_solubility
[25] = Oral bioavailability in cynomolgus monkey at 2 mg/kg by LC/MS/MS analysis; format: ADME, organism-based, Macaca fascicularis; conditions: in vivo
[26] = Cmax in Sprague-Dawley rat at 2 mg/kg, po by LC/MS/MS analysis; format: ADME, organism-based; set-up: dose 2 mg/kg, route oral; conditions: in vivo
Cytochrome P450 3A4 [27] = molecular target: T2, Cytochrome P450 3A4; experiment: Reversible inhibition of CYP3A4 in human liver microsomes using testosterone as substrate by LC/MS/MS analysis; format: ADME, Microsome
[28] = Apparent permeability across basolateral to apical side in dog MDCK cells; format: ADME, cell-based, Canis lupus familiaris
[29] = Metabolic stability in dog hepatocytes assessed as hepatic clearance; format: ADME, cell-based, Canis lupus familiaris, Liver, Hepatocyte
Cytochrome P450 2D6 = Cytochrome P450 2D6 (Homo sapiens, UniProt P10635)
Chain of Cytochrome P450 2D6 (P10635 whole entry): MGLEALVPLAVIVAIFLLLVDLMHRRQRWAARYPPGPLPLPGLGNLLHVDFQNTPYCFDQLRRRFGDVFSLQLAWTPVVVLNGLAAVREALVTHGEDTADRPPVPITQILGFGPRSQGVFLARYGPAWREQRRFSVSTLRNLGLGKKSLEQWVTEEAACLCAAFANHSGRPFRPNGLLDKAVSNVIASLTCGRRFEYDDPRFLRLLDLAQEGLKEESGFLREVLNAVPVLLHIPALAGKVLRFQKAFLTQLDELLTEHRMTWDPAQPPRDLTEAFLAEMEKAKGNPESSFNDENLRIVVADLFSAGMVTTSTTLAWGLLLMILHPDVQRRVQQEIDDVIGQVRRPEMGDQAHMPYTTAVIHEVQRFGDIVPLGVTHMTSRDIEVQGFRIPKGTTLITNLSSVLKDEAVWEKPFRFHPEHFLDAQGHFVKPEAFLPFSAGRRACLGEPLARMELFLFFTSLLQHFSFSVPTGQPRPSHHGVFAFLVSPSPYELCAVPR

[30] = Cmax in Beagle dog at 2 mg/kg, po by LC/MS/MS analysis; format: ADME, organism-based, Canis lupus familiaris; set-up: dose 2 mg/kg, route oral; conditions: in vivo
Cytochrome P450 2C9 = Cytochrome P450 2C9 (Homo sapiens, UniProt P11712)
Chain of Cytochrome P450 2C9 (P11712 whole entry): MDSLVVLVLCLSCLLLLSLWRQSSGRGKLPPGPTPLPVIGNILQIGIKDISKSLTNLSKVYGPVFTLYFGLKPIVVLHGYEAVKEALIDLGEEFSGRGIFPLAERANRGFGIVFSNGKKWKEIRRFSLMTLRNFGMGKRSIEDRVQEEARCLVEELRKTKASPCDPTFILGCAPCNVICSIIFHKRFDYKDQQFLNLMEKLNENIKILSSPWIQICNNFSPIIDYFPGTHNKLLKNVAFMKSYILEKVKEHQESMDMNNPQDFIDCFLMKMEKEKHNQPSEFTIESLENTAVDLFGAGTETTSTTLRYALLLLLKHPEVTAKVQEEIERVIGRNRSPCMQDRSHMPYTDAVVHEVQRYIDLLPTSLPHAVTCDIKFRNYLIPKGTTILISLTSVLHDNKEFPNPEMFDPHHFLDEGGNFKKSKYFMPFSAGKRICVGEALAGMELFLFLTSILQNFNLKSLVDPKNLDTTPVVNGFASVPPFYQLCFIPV

[31] = Thermodynamic solubility in aqueous buffer at pH 2; format: physicochemical; conditions: read-out: Therm_solubility
[32] = molecular target: T3, Tyrosine-protein kinase JAK1 (Homo sapiens, UniProt P23458)
T3 sequence (P23458 whole entry): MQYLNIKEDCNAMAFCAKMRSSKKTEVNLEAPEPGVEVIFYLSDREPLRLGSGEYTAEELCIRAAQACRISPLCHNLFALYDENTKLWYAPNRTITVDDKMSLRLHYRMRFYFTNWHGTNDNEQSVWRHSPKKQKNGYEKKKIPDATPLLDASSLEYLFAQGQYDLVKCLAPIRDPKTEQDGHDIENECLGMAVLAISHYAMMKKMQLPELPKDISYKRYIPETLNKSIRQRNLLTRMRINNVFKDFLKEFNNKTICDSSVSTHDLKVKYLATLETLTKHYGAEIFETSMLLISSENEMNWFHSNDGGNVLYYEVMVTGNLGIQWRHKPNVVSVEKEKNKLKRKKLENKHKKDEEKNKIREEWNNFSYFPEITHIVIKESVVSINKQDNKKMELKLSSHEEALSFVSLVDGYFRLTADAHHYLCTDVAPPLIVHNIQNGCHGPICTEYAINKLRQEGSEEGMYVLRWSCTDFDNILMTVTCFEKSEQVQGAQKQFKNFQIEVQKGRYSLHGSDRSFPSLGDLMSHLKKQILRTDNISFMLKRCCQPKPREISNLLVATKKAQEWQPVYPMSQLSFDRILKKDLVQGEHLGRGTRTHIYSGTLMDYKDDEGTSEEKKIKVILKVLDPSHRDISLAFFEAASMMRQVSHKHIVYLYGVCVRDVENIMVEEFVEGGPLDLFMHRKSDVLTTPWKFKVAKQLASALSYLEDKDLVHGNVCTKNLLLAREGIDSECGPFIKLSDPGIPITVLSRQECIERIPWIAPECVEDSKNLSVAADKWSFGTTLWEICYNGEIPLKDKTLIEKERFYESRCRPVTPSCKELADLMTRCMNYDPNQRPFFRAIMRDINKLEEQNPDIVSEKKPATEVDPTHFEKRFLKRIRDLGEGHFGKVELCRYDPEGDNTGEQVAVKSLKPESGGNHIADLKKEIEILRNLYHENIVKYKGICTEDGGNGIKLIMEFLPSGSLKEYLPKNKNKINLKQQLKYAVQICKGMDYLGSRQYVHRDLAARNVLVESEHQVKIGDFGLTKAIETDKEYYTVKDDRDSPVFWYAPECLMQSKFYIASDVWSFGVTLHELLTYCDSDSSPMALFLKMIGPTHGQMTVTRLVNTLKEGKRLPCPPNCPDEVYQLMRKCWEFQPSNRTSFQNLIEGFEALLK

[33] = molecular target: T3, Tyrosine-protein kinase JAK1; remark: listed apart in the source
[34] = molecular target: Macrophage colony-stimulating factor 1 receptor (Homo sapiens) (UniProt P07333); experiment: Inhibition of CSF1R (unknown origin) at 1 uM
[35] = molecular target: Leucine-rich repeat serine/threonine-protein kinase 2 (Homo sapiens) (UniProt Q5S007); experiment: Inhibition of LRRK2 (unknown origin) at 1 uM
[36] = molecular target: T4, Non-receptor tyrosine-protein kinase TYK2 (Homo sapiens, UniProt P29597)
T4 sequence (P29597 whole entry): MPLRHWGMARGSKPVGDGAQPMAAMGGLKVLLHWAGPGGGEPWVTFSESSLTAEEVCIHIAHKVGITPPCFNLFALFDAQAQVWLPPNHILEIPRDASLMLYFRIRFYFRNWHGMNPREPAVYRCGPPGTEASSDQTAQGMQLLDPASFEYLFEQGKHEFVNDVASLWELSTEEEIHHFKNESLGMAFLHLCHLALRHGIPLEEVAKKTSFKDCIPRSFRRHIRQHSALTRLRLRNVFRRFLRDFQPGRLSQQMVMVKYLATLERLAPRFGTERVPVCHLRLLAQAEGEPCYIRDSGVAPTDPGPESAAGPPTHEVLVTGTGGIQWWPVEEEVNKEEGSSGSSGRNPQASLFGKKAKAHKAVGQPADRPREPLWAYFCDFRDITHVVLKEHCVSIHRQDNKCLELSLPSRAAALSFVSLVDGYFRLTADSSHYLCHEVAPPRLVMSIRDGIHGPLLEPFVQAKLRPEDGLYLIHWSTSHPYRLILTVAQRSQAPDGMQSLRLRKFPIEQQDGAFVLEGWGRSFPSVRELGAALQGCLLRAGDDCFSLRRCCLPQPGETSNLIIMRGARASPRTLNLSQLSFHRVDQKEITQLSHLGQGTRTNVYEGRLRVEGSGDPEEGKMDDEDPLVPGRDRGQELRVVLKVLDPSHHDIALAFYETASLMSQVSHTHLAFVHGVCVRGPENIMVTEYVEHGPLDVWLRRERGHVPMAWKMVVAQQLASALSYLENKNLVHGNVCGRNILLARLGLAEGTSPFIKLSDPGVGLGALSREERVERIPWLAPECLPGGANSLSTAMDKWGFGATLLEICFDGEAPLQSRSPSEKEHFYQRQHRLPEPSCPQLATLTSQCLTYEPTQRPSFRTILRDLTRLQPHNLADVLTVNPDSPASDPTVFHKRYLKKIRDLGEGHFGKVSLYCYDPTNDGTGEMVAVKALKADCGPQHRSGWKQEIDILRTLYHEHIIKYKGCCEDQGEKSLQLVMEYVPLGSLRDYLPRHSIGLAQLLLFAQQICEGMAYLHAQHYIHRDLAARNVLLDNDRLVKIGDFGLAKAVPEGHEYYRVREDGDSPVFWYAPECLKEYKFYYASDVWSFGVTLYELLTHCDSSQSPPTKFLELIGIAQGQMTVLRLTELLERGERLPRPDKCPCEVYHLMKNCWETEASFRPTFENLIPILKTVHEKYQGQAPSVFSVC

[37] = molecular target: T4, Non-receptor tyrosine-protein kinase TYK2; remark: listed apart in the source
[38] = molecular target: T3, Tyrosine-protein kinase JAK1; remark: listed apart in the source

Row | Compound | Papp A→B [1] | fraction unbound [2] | IC50 (Cytochrome P450 1A2) | half-life [4] | fraction unbound [5] | IC50 (Cytochrome P450 3A4 [6]) | CLhep predicted [9] | CLhep predicted [10] | clearance [12] | AUC [13] | IC50 (Cytochrome P450 2C19) | half-life [14] | CLhep predicted [15] | bioavailability [16] | clearance [17] | CLhep predicted [18] | fraction unbound [20] | Ki [21] | bioavailability [22] | AUC [23] | other results
1 | C[C@@H](O)c1nc2cnc3[nH]ccc3c2n1[C@H]1CC[C@H](CCC#N)CC1 | 4.7 ×10⁻⁶ cm/s | 0.34 | > 10 µM | 1.3 h | 0.24 | 6.7 µM | 36 mL/min/kg | 5.7 mL/min/kg | 29 mL/min/kg | 0.42 µM·h | > 10 µM | 0.6 h | 5.2 mL/min/kg | 50% | 126 mL/min/kg | 28 mL/min/kg | 0.32 | 0.0078 µM | 125% | 4.3 µM·h | AUC [3]: 0.26 µM·h; half-life [7]: 0.8 h; Cmax [8]: 70 nM; clearance [11]: 29 mL/min/kg; IC50 [19]: 20 µM; solubility thermodynamic [24]: 16 µM (≈ 5.4 µg/mL); bioavailability [25]: 8%; Cmax [26]: 220 nM; IC50 (Cytochrome P450 3A4 [27]): > 10 µM; Papp B→A [28]: 9.3 ×10⁻⁶ cm/s; CLhep predicted [29]: 11 mL/min/kg; IC50 (Cytochrome P450 2D6): > 10 µM; Cmax [30]: 1300 nM; IC50 (Cytochrome P450 2C9): > 10 µM; solubility thermodynamic [31]: > 4000 µM
2 | C[C@@H](O)c1nc2cnc3[nH]ccc3c2n1[C@H]1CC[C@@H](NCC(F)(F)F)C1 | 10 ×10⁻⁶ cm/s | 0.41 | > 10 µM | 1.2 h | 0.44 | > 10 µM | 27 mL/min/kg | 3.6 mL/min/kg | 14 mL/min/kg | 1 µM·h | > 10 µM | 1.1 h | 3.8 mL/min/kg | 61% | 55 mL/min/kg | 14 mL/min/kg | 0.51 | 0.053 µM | 131% | 9 µM·h | EC50 [32]: 0.07 µM; EC50 [33]: 0.051 µM; inhibition [34]: 75%; inhibition [35]: 72%; Ki [36]: 0.02 µM; solubility thermodynamic [24]: 70 µM (≈ 25.7 µg/mL); EC50 [37]: 2.2 µM; Cmax [26]: 980 nM; IC50 (Cytochrome P450 3A4 [27]): > 10 µM; Papp B→A [28]: 18 ×10⁻⁶ cm/s; Ki [38]: 0.002 µM; CLhep predicted [29]: 9.8 mL/min/kg; IC50 (Cytochrome P450 2D6): > 10 µM; Cmax [30]: 3000 nM; IC50 (Cytochrome P450 2C9): > 10 µM; solubility thermodynamic [31]: > 4000 µM
